Measured values from patent US7786141B2 (Vertex Pharmaceuticals Incorporated, priority 2004, dated 2010).
pEC50: −log10 of the molar value. Read-outs that look alike come from different tables or passages of the source.

Experiments:
[1] = biological target: T1, M4 muscarinic receptor (Homo sapiens, UniProt P08173); assay: Functional mobilization of intracellular calcium (FLIPR) in M4-CHO cells; format: cell-based
T1 construct: expressed in transfected cells; host or cells: CHO (M4-CHO)
T1 sequence (P08173 1-479): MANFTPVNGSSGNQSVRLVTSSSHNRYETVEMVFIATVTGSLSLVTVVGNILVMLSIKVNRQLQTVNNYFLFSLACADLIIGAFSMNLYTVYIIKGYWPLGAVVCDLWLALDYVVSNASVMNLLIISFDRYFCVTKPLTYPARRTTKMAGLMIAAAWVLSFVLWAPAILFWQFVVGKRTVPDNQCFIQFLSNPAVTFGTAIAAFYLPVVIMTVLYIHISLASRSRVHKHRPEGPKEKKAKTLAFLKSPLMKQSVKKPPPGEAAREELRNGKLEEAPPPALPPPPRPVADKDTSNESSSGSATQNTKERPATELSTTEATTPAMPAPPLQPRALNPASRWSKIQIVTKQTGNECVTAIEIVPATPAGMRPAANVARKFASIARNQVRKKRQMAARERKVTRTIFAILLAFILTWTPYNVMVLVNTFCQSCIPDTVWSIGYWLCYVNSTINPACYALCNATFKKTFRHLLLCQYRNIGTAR
Method in brief: (§1)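 Measured via Fluo-3 fluorescence on a FLIPR, CHO cells with either muscarinic subtype received compound in 0.5% DMSO. Antagonism was assessed after 15 min pre-incubation followed by carbachol at each subtype's EC80; agonism from compound addition alone.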

[2] = biological target: T2, M1 muscarinic receptor (Homo sapiens, UniProt P11229); assay: Functional mobilization of intracellular calcium (FLIPR) in M1-CHO cells; format: cell-based
T2 construct: expressed in transfected cells; host or cells: CHO (M1-CHO)
T2 sequence (P11229 1-460): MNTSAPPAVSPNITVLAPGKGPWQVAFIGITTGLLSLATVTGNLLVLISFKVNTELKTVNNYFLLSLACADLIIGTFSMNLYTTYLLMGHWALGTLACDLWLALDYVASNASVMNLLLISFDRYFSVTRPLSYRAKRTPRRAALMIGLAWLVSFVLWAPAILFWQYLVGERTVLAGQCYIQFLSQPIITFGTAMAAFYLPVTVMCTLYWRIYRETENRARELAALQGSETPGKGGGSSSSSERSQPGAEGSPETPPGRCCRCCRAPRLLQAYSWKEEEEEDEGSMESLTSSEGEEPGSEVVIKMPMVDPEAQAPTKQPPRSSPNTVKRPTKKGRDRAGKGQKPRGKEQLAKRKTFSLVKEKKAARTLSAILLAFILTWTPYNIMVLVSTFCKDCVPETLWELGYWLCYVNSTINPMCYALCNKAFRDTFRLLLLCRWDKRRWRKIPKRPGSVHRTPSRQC
Method in brief: as §1

[3] = M4 receptor, calcium mobilization
[4] = M4 receptor, calcium mobilization, read-out: M4 Efficacy
[5] = M1 receptor, calcium mobilization
[6] = M1 receptor, calcium mobilization, read-out: M1 Efficacy
[7] = Table 4, 100% efficacy is the maximum response obtained with the Carbachol control
[8] = Table 4, M4 receptor, calcium mobilization (FLIPR)
[9] = Table 4, M1 receptor, calcium mobilization (FLIPR)
[10] = Table 4, modulating M4 receptor
[11] = Table 4, modulating M1 receptor
[12] = M4-CHO cells, calcium mobilization (FLIPR)
[13] = M4-CHO cells, calcium mobilization (FLIPR), read-out: M4 Efficacy
[14] = M1-CHO cells, calcium mobilization (FLIPR)
[15] = M1-CHO cells, calcium mobilization (FLIPR), read-out: M1 Efficacy
[16] = 100% efficacy is the maximum response obtained with the Carbachol control, Table 5

| SMILES | M4 Activity [1, 3] | Emax [1, 4] [%] | M1 Activity [2, 5] | Emax [2, 6] [%] | Emax [1, 7] [%] | Emax [2, 7] [%] | M4 Activity [1, 10] | M1 Activity [2, 11] | other results |
| --- | --- | --- | --- | --- | --- | --- | --- | --- | --- |
| CCOC(=O)N1CCC(N2CCC3(CC2)CN(CC(C)=O)c2ccc(F)cc23)CC1 [compound 249] | x (activity was measured to be greater than 1.0 μM) | 65 to 85 | x (activity was measured to be greater than 1.0 μM) | 65 to 85 |  |  |  |  |  |
| CCOC(=O)N1CCC(N2CCC3(CC2)CN(C(=O)N2CCCC2)c2ccccc23)CC1 [compound 959] |  |  |  |  | 25 to 100 | 25 to 100 |  |  | M4 Activity [1, 8]: xxx (activity was measured to be less than 2.0 μM); M1 Activity [2, 9]: xx (activity was measured to be between 2.0 μM and 5.0 μM) |
| CCOC(=O)N1CCC(N2CCC3(CC2)CN(C(C)=O)c2cccc(C)c23)CC1 [compound 450] |  |  |  |  | < 25 | 25 to 100 | x (activity was measured to be greater than 5.0 μM) | xxx (activity was measured to be less than 2.0 μM) |  |
| CC(=O)NC1CCC2(CCN(CCC3CCN(C(=O)C(C)(C)C)CC3)CC2)c2ccccc21 (stereo not drawn) [compound 966] |  |  |  |  | < 25 | 25 to 100 |  |  | M4 Activity [1, 8]: x (activity was measured to be greater than 5.0 μM); M1 Activity [2, 9]: xxx (activity was measured to be less than 2.0 μM) |
| CC(=O)NC1CCC2(CCN(CCC3CCCN(S(C)(=O)=O)C3)CC2)c2ccccc21 (stereo not drawn) [compound 541] |  |  |  |  | < 25 | 25 to 100 | x (activity was measured to be greater than 5.0 μM) | xxx (activity was measured to be less than 2.0 μM) |  |
| CCC(C)(C)C1CCC(N2CCC3(CC[C@H](NC(C)=O)c4ccccc43)CC2)CC1 (stereo partly drawn) [compound 624] |  |  |  |  | < 25 | 25 to 100 | x (activity was measured to be greater than 5.0 μM) | xxx (activity was measured to be less than 2.0 μM) |  |
| CN(C)C(=O)N1CC2(CCN(C3CCN(C(=O)CCC(F)(F)F)CC3)CC2)c2cc(F)ccc21 [compound 633] |  |  |  |  | < 25 | 25 to 100 | x (activity was measured to be greater than 5.0 μM) | xx (activity was measured to be between 2.0 μM and 5.0 μM) |  |
| CCOC(=O)N1CC[C@H](CN2CCC3(CC2)CN(C(C)=O)c2ccccc23)C1 [compound 482] |  |  |  |  | 25 to 100 | 25 to 100 | xxx (activity was measured to be less than 2.0 μM) | xxx (activity was measured to be less than 2.0 μM) |  |
| COCCOC(=O)N1CCC(CN2CCC3(CC2)C[C@H](NC(C)=O)c2ccccc23)CC1 [compound 412] |  |  |  |  |  |  |  |  | pEC50 [1, 12]: < 6.00; Emax [1, 13]: < 65%; pEC50 [2, 14]: 6.00 to 7.00; Emax [2, 15]: < 65% |
| C/C=C\c1ccc2c(c1)C1(CCN(C3CCN(C(=O)OCC)CC3)CC1)CN2C(C)=O [compound 407] |  |  |  |  |  |  |  |  | pEC50 [1, 12]: < 6.00; Emax [1, 13]: < 65%; pEC50 [2, 14]: 6.00 to 7.00; Emax [2, 15]: < 65% |
| COC(=O)N1CC2(CCN(C3CC4CCC(C3)N4C(=O)OC(C)C)CC2)c2cc(F)ccc21 (stereo not drawn) [compound 97] | x (activity was measured to be greater than 1.0 μM) | < 65 | xxx (activity was measured to be less than 0.1 μM) | 65 to 85 |  |  |  |  |  |
| CCOC(=O)N1C2CCC1CC(N1CCC3(CC1)CN(C(C)=O)c1ccc(OC)cc13)C2 (stereo not drawn) [compound 754] |  |  |  |  | 25 to 100 | 25 to 100 | xxx (activity was measured to be less than 2.0 μM) | xxx (activity was measured to be less than 2.0 μM) |  |
| C#CCOC(=O)N1CC[C@@H](CN2CCC3(CC2)CN(C(=O)N(C)C)c2ccc(F)cc23)C1 [compound 775] |  |  |  |  | 25 to 100 | 25 to 100 | xxx (activity was measured to be less than 2.0 μM) | xxx (activity was measured to be less than 2.0 μM) |  |
| CC(=O)N[C@H]1CC2(CCN(C3CCC(C(C)(C)C)CC3)CC2)c2ccccc21 (stereo partly drawn) [compound 638] |  |  |  |  | < 25 | < 25 | x (activity was measured to be greater than 5.0 μM) | x (activity was measured to be greater than 5.0 μM) |  |
| CCOC(=O)N1CCC(N2CCC3(CC2)CC(=O)c2cc(C)ccc23)CC1 [compound 783] |  |  |  |  | 25 to 100 | 25 to 100 | xx (activity was measured to be between 2.0 μM and 5.0 μM) | xxx (activity was measured to be less than 2.0 μM) |  |
| CC(=O)N[C@@H]1CC2(CCN([C@H]3C[C@@H]4CC[C@H]3C4)CC2)c2ccccc21 [compound 171] | x (activity was measured to be greater than 1.0 μM) | 65 to 85 | xx (activity was measured to be between 0.1 μM and 1.0 μM) | > 85 |  |  |  |  |  |
| CC(=O)N[C@@H]1CCC2(CCN(CC3CC4C=CC3C4)CC2)c2ccccc21 (stereo partly drawn) [compound 486] |  |  |  |  | 25 to 100 | < 25 | xxx (activity was measured to be less than 2.0 μM) | x (activity was measured to be greater than 5.0 μM) |  |
| CC(C)OC(=O)N1C2CCC1CC(N1CCC3(CCc4ccccc43)CC1)C2 (stereo not drawn) [compound 285] | x (activity was measured to be greater than 1.0 μM) | < 65 | xx (activity was measured to be between 0.1 μM and 1.0 μM) | < 65 |  |  |  |  |  |
| Cc1ccc2c(c1)C1(CCN(C3CC4CCC3C4)CC1)CN2C(=O)c1cc(C)on1 (stereo not drawn) [compound 208] | x (activity was measured to be greater than 1.0 μM) | < 65 | xx (activity was measured to be between 0.1 μM and 1.0 μM) | < 65 |  |  |  |  |  |
| CC#CC(C)OC(=O)N1C2CCC1CC(N1CCC3(CC1)CN(C(C)=O)c1ccccc13)C2 (stereo not drawn) [compound 515] |  |  |  |  | 25 to 100 | 25 to 100 | xxx (activity was measured to be less than 2.0 μM) | xxx (activity was measured to be less than 2.0 μM) |  |
| O=C(O[C@@H]1CCOC1)N1C2CCC1CC(N1CCC3(CC1)COc1ccc(F)cc13)C2 (stereo partly drawn) [compound 338] | x (activity was measured to be greater than 1.0 μM) | < 65 | x (activity was measured to be greater than 1.0 μM) | < 65 |  |  |  |  |  |
| CC(=O)N1CC2(CCN(C3CCN(C(=O)OC(C)C)CC3)CC2)c2cc(F)ccc21 [compound 269] | xxx (activity was measured to be less than 0.1 μM) | > 85 | xxx (activity was measured to be less than 0.1 μM) | 65 to 85 |  |  |  |  |  |
| CCOC(=O)N1CCC(N2CCC3(CC2)CN(C(=O)c2ccccn2)c2ccc(F)cc23)CC1 [compound 331] | x (activity was measured to be greater than 1.0 μM) | < 65 | xx (activity was measured to be between 0.1 μM and 1.0 μM) | < 65 |  |  |  |  |  |
| COCCOC(=O)N1C2CCC1CC(N1CCC3(CC1)CN(C(=O)N(C)C)c1ccc(F)cc13)C2 (stereo not drawn) [compound 119] | x (activity was measured to be greater than 1.0 μM) | < 65 | xxx (activity was measured to be less than 0.1 μM) | < 65 |  |  |  |  |  |
| CN(C)C(=O)N1CC2(CCN(C3CCN(c4cccnc4)CC3)CC2)c2cc(F)ccc21 [compound 1040] |  |  |  |  |  |  |  |  | Emax [1, 16]: 25 to 100%; pEC50 ([1]; CHO cells expressing M4, calcium mobilization, Table 5): > 5.70; Emax [2, 16]: 25 to 100%; pEC50 ([2]; CHO cells expressing M1, calcium mobilization, Table 5): > 5.70 |
| CC(C)N(C(=O)N[C@H]1CC2(CCN(C3CC4CC[C@@H]3C4)CC2)c2ccccc21)C(C)C (stereo partly drawn) [compound 960] |  |  |  |  | 25 to 100 | < 25 |  |  | M4 Activity [1, 8]: xx (activity was measured to be between 2.0 μM and 5.0 μM); M1 Activity [2, 9]: x (activity was measured to be greater than 5.0 μM) |
| CN(C)C(=O)N1CC2(CCN(C3CCN(C(=O)CC4CCCC4=O)CC3)CC2)c2cc(F)ccc21 (stereo not drawn) [compound 544] |  |  |  |  | < 25 | 25 to 100 | xx (activity was measured to be between 2.0 μM and 5.0 μM) | xx (activity was measured to be between 2.0 μM and 5.0 μM) |  |
